Reference: ChEMBL document CHEMBL1201862, “PubChem BioAssay data set” (2004)
Counter-ions that a name gives are not always drawn.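 Exposure lasted 48 hours, with cells grown in 96-well plates and compounds tested at five concentrations. GI50 = concentration required for 50% inhibition of growth.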 Activity calls are given as the source filed them. Rule as the data show it: active = GI50 up to about 1.1 µM and inactive = higher.

Experiments:
Assay in all cases: DTP human tumour cell line panel, 48 h
HOP-18 = test system: HOP-18
KM-20L2 = test system: KM-20L2
LXFL 529 = test system: LXFL 529
M19-MEL = test system: M19-MEL
SNB-78 = test system: SNB-78
XF498 = test system: XF498
Hs-578T = test system: Hs-578T
DMS-114 = test system: DMS-114
RXF 631 = test system: RXF 631

COC1OC2COC(c3ccccc3)OC2C(O)C1Br (configuration not stated)
GI50 (HOP-18): > 100 µM (inactive) | GI50 (KM-20L2): > 10 µM (inactive) | GI50 (LXFL 529): > 100 µM (inactive) | GI50 (M19-MEL): > 100 µM (inactive) | GI50 (SNB-78): > 100 µM (inactive) | GI50 (XF498): > 100 µM (inactive)

CCOP(=O)(OCC)OC1c2[nH]cc(C(=O)OCc3ccccc3)c2-c2cc(C(=O)OC)[nH]c2C1OC (configuration not stated)
GI50 (Hs-578T): 16.8 µM (inactive)

O=[N+]([O-])c1ccc(CSC2=C(c3ccc(Cl)cc3)S/C(=C3\SC(SCc4ccc([N+](=O)[O-])cc4)=C(c4ccc(Cl)cc4)S3)S2)cc1
GI50 (Hs-578T): > 100 µM (inactive)

NCCCNC(=O)c1csc(NC(=O)c2csc(NC(=O)CCCN)n2)n1
GI50 (DMS-114): > 100 µM (inactive) | GI50 (HOP-18): > 100 µM (inactive) | GI50 (KM-20L2): > 100 µM (inactive) | GI50 (LXFL 529): > 100 µM (inactive) | GI50 (M19-MEL): > 100 µM (inactive) | GI50 (RXF 631): > 100 µM (inactive) | GI50 (SNB-78): > 100 µM (inactive)

CC(C)CC1NC(=O)CCC(NC(=O)C(Cc2ccc(O)cc2)NC(=O)OCc2ccccc2)C(=O)NC(Cc2ccccc2)C(=O)NC(Cc2ccccc2)NC1=O (configuration not stated)
GI50 (Hs-578T): > 100 µM (inactive)

C[C@H](NC1=CC(=O)C(N[C@@H](C)[C@H](O)c2ccccc2)=CC1=O)[C@H](O)c1ccccc1
GI50 (Hs-578T): 37.2 µM (inactive)

O=C1C=C(c2ccccc2)O/C1=C\C(=O)c1ccc(Cl)cc1
GI50 (Hs-578T): 21.9 µM (inactive)

O=C1c2ccccc2C(=O)N1C/C=C/CO
GI50 (DMS-114): > 100 µM (inactive) | GI50 (HOP-18): > 100 µM (inactive) | GI50 (KM-20L2): > 100 µM (inactive) | GI50 (LXFL 529): > 100 µM (inactive) | GI50 (M19-MEL): > 100 µM (inactive) | GI50 (SNB-78): > 100 µM (inactive)

CCOC(=O)CNC(=O)OCc1ccccc1
GI50 (DMS-114): > 100 µM (inactive) | GI50 (LXFL 529): > 100 µM (inactive) | GI50 (M19-MEL): > 100 µM (inactive) | GI50 (RXF 631): > 100 µM (inactive) | GI50 (SNB-78): > 100 µM (inactive) | GI50 (XF498): > 100 µM (inactive)

CC(Oc1ccccc1Cl)C(=O)NN1C(=O)CC(=O)NC1=S (configuration not stated)
GI50 (Hs-578T): > 100 µM (inactive)

Clc1ccc(-c2cn3c(nc4ccccc43)c(/C=C/c3ccco3)n2)cc1
GI50 (Hs-578T): 14.8 µM (inactive)

COC1OC2COC1(OCc1ccccc1)C1OC(C)(C)OC21 (configuration not stated)
GI50 (Hs-578T): > 100 µM (inactive)

CCCCn1c2c(n(CCCC)c1=[Se])-c1c(n(CCCC)c(=[Se])n1CCCC)S[Se][Se]S2
GI50 (Hs-578T): 18.7 µM (inactive)

CCCCCCCCCCCCCOCCOCCOCCCCC(O)CCCCCCCCCC1=C[C@H](C)OC1=O (some centres not stated)
GI50 (Hs-578T): 14.9 µM (inactive)

O=C1c2cc(Cc3ccccc3)c(=O)c(Cc3ccccc3)cc2C(=O)c2cc(Cc3ccccc3)c(=O)c(Cc3ccccc3)cc21
GI50 (Hs-578T): > 100 µM (inactive)

CCOC(=O)c1cc(C2CCN(c3ccccc3)C2=O)c(C(=O)/C=C(/C)O)[nH]1 (configuration not stated)
GI50 (Hs-578T): 93.8 µM (inactive)

Cc1cc2c(=O)cc(-c3ccc(Cl)cc3Cl)oc2c(C(=O)O)c1C
GI50 (DMS-114): > 100 µM (inactive) | GI50 (HOP-18): > 100 µM (inactive) | GI50 (KM-20L2): > 100 µM (inactive) | GI50 (LXFL 529): > 100 µM (inactive) | GI50 (SNB-78): > 100 µM (inactive) | GI50 (XF498): > 100 µM (inactive)

Cc1ncc([N+](=O)[O-])n1CCNCCCCn1ccnc1[N+](=O)[O-]
GI50 (Hs-578T): > 100 µM (inactive)

O=C1C(CN2CCCC2)CCC1CN1CCCC1 (configuration not stated)
GI50 (Hs-578T): 22.3 µM (inactive)

C/C(=C\COc1cc(O)c2c(c1)C(=O)c1cc(C)cc(O)c1C2=O)CCC1OC1(C)C (configuration not stated)
GI50 (Hs-578T): 24.1 µM (inactive)

CC(=O)Nc1ccc(C(=O)N2N=C(C)/C(=C/c3cccc([N+](=O)[O-])c3)C2=O)cc1
GI50 (DMS-114): > 100 µM (inactive) | GI50 (HOP-18): > 100 µM (inactive) | GI50 (M19-MEL): > 100 µM (inactive) | GI50 (SNB-78): > 100 µM (inactive)

C=C1C(=O)OC2C3C(=C)[C@@H](OC(C)=O)CC3C(C)=CC(OC(=O)C(C)(O)C(C)OC(C)=O)[C@@H]12 (some centres not stated)
GI50 (Hs-578T): 12.8 µM (inactive)

COc1cc(/C=C2\[C@H]3c4c(c(OC)c(C)c(OC)c4OC)CC(C(=O)N2Cc2ccccc2)N3C)c(OC)c(C)c1OC
GI50 (HOP-18): 23.7 µM (inactive) | GI50 (KM-20L2): 20.3 µM (inactive) | GI50 (LXFL 529): 19.4 µM (inactive) | GI50 (M19-MEL): 17.4 µM (inactive)

C=C(C=O)CCCC(C)[C@@H]1CCC23CC12CCC1[C@@]2(C)CCC(OC(C)=O)C(C)(C)C2CC(OC2OC(COC(C)=O)C(O)C(O)C2O)[C@]13C (some centres not stated)
GI50 (HOP-18): 9.64 µM (inactive) | GI50 (KM-20L2): 6.5 µM (inactive) | GI50 (LXFL 529): 2.66 µM (inactive) | GI50 (SNB-78): 1.14 µM (inactive)

CC1(C)CCC[C@]2(C)[C@H]3[C@H](C#N)c4cc(O)c(O)cc4O[C@@]3(C)CC[C@@H]12
GI50 (Hs-578T): > 10 µM (inactive)

CN1N=C2c3ccccc3CC[C@H]2C1c1cccc(O)c1 (some centres not stated)
GI50 (DMS-114): > 100 µM (inactive) | GI50 (KM-20L2): > 100 µM (inactive) | GI50 (LXFL 529): 99.5 µM (inactive) | GI50 (M19-MEL): > 100 µM (inactive) | GI50 (XF498): > 100 µM (inactive)

O=C1c2ccccc2-c2nc(-c3cccc([N+](=O)[O-])c3)nnc21
GI50 (Hs-578T): 12.4 µM (inactive)

CCc1nc(N)nc(N)c1-c1ccc(NC)c([N+](=O)[O-])c1
GI50 (Hs-578T): 23.6 µM (inactive)

O=C1NC(Cc2c[nH]c3ccccc23)C(=O)N2C(C3CCCCC3)c3[nH]c4ccccc4c3C[C@@H]12 (some centres not stated)
GI50 (Hs-578T): 2.18 µM (inactive)

C[n+]1c(-c2ccc(/C=N/NC(=O)C(=O)N/N=C/c3ccc(-c4cn5ccccc5[n+]4C)cc3)cc2)cn2ccccc21
GI50 (Hs-578T): > 100 µM (inactive)

c1ccc2c(c1)ccn2CCc1c[nH]c2ccccc12
GI50 (Hs-578T): > 10 µM (inactive)

O=C(O)CCCNS(=O)(=O)c1ccccc1
GI50 (HOP-18): > 100 µM (inactive) | GI50 (KM-20L2): > 100 µM (inactive) | GI50 (LXFL 529): > 100 µM (inactive) | GI50 (M19-MEL): > 100 µM (inactive) | GI50 (XF498): 69.3 µM (inactive)

NC(=O)NC1NC(=O)NC1=O (configuration not stated) [ALLANTOIN]
GI50 (Hs-578T): > 100 µM (inactive)

CN1CCC(CN2c3ccccc3Sc3ccccc32)C1 (configuration not stated) [METHDILAZINE HYDROCHLORIDE]
GI50 (Hs-578T): 15.4 µM (inactive)
